Reference: ChEMBL document CHEMBL2016493, “Design, synthesis, synergistic antimicrobial activity and cytotoxicity of 4-aryl substituted 3,4-dihydropyrimidinones of curcumin” (Bioorg Med Chem Lett, 2012)
The source made the active and inactive calls. No cut-off for these calls is given here.

Experiments:
[1] = test system: Burkholderia pseudomallei; assay: Antibacterial activity against Burkholderia pseudomallei NTCC 10274 at 20 uM/ml after 24 hrs by kirby-bauer method; assay type: functional
[2] = test system: Staphylococcus aureus; assay: Antibacterial activity against Staphylococcus aureus ATCC 11632 at 40 uM/ml after 24 hrs by kirby-bauer method; assay type: functional
[3] = test system: Trichoderma viride; assay: Antifungal activity against Trichoderma viride MTCC 1107 at 20 uM/ml after 48 hrs by paper disc diffusion method; assay type: functional; conditions: MTCC 1107, 48 h, read-out: IZ
[4] = test system: Aspergillus flavus; assay: Antifungal activity against Aspergillus flavus MTCC 1021 at 160 uM/ml after 48 hrs by paper disc diffusion method; assay type: functional
[5] = test system: QG-56; assay: Cytotoxicity against human QG56 cells after 48 hrs by MTT assay; assay type: functional, cell-based
[6] = test system: Curvularia lunata; assay: Antifungal activity against Curvularia lunata MTCC 581 at 20 uM/ml after 48 hrs by paper disc diffusion method; assay type: functional
[7] = test system: Burkholderia pseudomallei; assay: Antibacterial activity against Burkholderia pseudomallei NTCC 10274 at 80 uM/ml after 24 hrs by kirby-bauer method; assay type: functional; conditions: NTCC 10274, 24 h, read-out: IZ
[8] = test system: Burkholderia pseudomallei; assay: Antibacterial activity against Burkholderia pseudomallei NTCC 10274 at 160 uM/ml after 24 hrs by kirby-bauer method; assay type: functional; conditions: NTCC 10274, 24 h, read-out: IZ
[9] = test system: Escherichia coli; assay: Antibacterial activity against Escherichia coli ATCC 35218 at 160 uM/ml after 24 hrs by kirby-bauer method; assay type: functional; conditions: ATCC 35218, 24 h, read-out: IZ
[10] = test system: Staphylococcus aureus; assay: Antibacterial activity against Staphylococcus aureus ATCC 11632 at 80 uM/ml after 24 hrs by kirby-bauer method; assay type: functional; conditions: ATCC 11632, 24 h, read-out: IZ
[11] = test system: Escherichia coli; assay: Antibacterial activity against Escherichia coli ATCC 35218 at 80 uM/ml after 24 hrs by kirby-bauer method; assay type: functional; conditions: ATCC 35218, 24 h, read-out: IZ
[12] = test system: Salmonella typhimurium; assay: Antibacterial activity against Salmonella typhimurium ATCC 23564 at 20 uM/ml after 24 hrs by kirby-bauer method; assay type: functional; conditions: Salmonella enterica subsp. enterica serovar Typhimurium
[13] = test system: Curvularia lunata; assay: Antifungal activity against Curvularia lunata MTCC 581 at 80 uM/ml after 48 hrs by paper disc diffusion method; assay type: functional; conditions: MTCC 581, 48 h, read-out: IZ
[14] = test system: Burkholderia pseudomallei; assay: Antibacterial activity against Burkholderia pseudomallei NTCC 10274 at 40 uM/ml after 24 hrs by kirby-bauer method; assay type: functional
[15] = test system: Trichoderma viride; assay: Antifungal activity against Trichoderma viride MTCC 1107 at 80 uM/ml after 48 hrs by paper disc diffusion method; assay type: functional; conditions: MTCC 1107, 48 h, read-out: IZ
[16] = test system: Salmonella typhimurium; assay: Antibacterial activity against Salmonella typhimurium ATCC 23564 at 40 uM/ml after 24 hrs by kirby-bauer method; assay type: functional; conditions: Salmonella enterica subsp. enterica serovar Typhimurium
[17] = test system: Escherichia coli; assay: Antibacterial activity against Escherichia coli ATCC 35218 at 40 uM/ml after 24 hrs by kirby-bauer method; assay type: functional; conditions: ATCC 35218, 24 h, read-out: IZ
[18] = test system: Escherichia coli; assay: Antibacterial activity against Escherichia coli ATCC 35218 at 20 uM/ml after 24 hrs by kirby-bauer method; assay type: functional; conditions: ATCC 35218, 24 h, read-out: IZ
[19] = test system: Pseudomonas aeruginosa; assay: Antibacterial activity against Pseudomonas aeruginosa ATCC 15499 at 80 uM/ml after 24 hrs by kirby-bauer method; assay type: functional; conditions: ATCC 15499, 24 h, read-out: IZ
[20] = test system: Curvularia lunata; assay: Antifungal activity against Curvularia lunata MTCC 581 at 40 uM/ml after 48 hrs by paper disc diffusion method; assay type: functional
[21] = test system: HCT-116
[22] = test system: Salmonella typhimurium; assay: Antibacterial activity against Salmonella typhimurium ATCC 23564 at 80 uM/ml after 24 hrs by kirby-bauer method; assay type: functional; conditions: Salmonella enterica subsp. enterica serovar Typhimurium
[23] = test system: Pseudomonas aeruginosa; assay: Antibacterial activity against Pseudomonas aeruginosa ATCC 15499 at 20 uM/ml after 24 hrs by kirby-bauer method; assay type: functional; conditions: ATCC 15499, 24 h, read-out: IZ
[24] = test system: HepG2
[25] = test system: Staphylococcus aureus; assay: Antibacterial activity against Staphylococcus aureus ATCC 11632 at 160 uM/ml after 24 hrs by kirby-bauer method; assay type: functional; conditions: ATCC 11632, 24 h, read-out: IZ
[26] = test system: Trichoderma viride; assay: Antifungal activity against Trichoderma viride MTCC 1107 at 40 uM/ml after 48 hrs by paper disc diffusion method; assay type: functional; conditions: MTCC 1107, 48 h, read-out: IZ
[27] = test system: Pseudomonas aeruginosa; assay: Antibacterial activity against Pseudomonas aeruginosa ATCC 15499 at 40 uM/ml after 24 hrs by kirby-bauer method; assay type: functional; conditions: ATCC 15499, 24 h, read-out: IZ
[28] = test system: Aspergillus niger; assay: Antifungal activity against Aspergillus niger MTCC 1108 at 160 uM/ml after 48 hrs by paper disc diffusion method; assay type: functional
[29] = test system: Salmonella typhimurium; assay: Antibacterial activity against Salmonella typhimurium ATCC 23564 at 160 uM/ml after 24 hrs by kirby-bauer method; assay type: functional, Salmonella enterica subsp. enterica serovar Typhimurium; conditions: Salmonella enterica, ATCC 23564, 24 h; read-out: IZ
[30] = test system: Trichoderma viride; assay: Antifungal activity against Trichoderma viride MTCC 1107 at 160 uM/ml after 48 hrs by paper disc diffusion method; assay type: functional; conditions: MTCC 1107, 48 h, read-out: IZ
[31] = test system: Curvularia lunata; assay: Antifungal activity against Curvularia lunata MTCC 581 at 160 uM/ml after 48 hrs by paper disc diffusion method; assay type: functional; conditions: MTCC 581, 48 h, read-out: IZ
[32] = test system: Staphylococcus aureus; assay: Antibacterial activity against Staphylococcus aureus ATCC 11632 at 20 uM/ml after 24 hrs by kirby-bauer method; assay type: functional
[33] = test system: Pseudomonas aeruginosa; assay: Antibacterial activity against Pseudomonas aeruginosa ATCC 15499 at 160 uM/ml after 24 hrs by kirby-bauer method; assay type: functional; conditions: ATCC 15499, 24 h, read-out: IZ

In the case of `COc1cc(/C=C/C(=O)C2=C(/C=C/c3ccc(O)c(OC)c3)NC(=O)NC2c2ccc([N+](=O)[O-])cc2)ccc1O` (stereo not drawn), the “inhibition zone (IZ)” value [1] is reported as “inactive”, the “inhibition zone (IZ)” value [2] is reported as “inactive” and the zone of inhibition at 20 µM [3] is reported as 17 mm. For the same molecule, the “inhibition zone (IZ)” value [4] was “inactive”, the IC50 [5] was 100 uM/ml and the “inhibition zone (IZ)” value [6] was “inactive”. The zone of inhibition at 80 µM [7] was 10 mm, the zone of inhibition at 160 µM [8] was 12 mm and the zone of inhibition at 160 µM [9] was 18 mm. For the same molecule, the zone of inhibition at 80 µM [10] was 10 mm, the zone of inhibition at 80 µM [11] was 16 mm and the “inhibition zone (IZ)” value [12] was “inactive”. The zone of inhibition at 80 µM [13] was 9 mm, the “inhibition zone (IZ)” value [14] was “inactive” and the zone of inhibition at 80 µM [15] was 21 mm. For the same molecule, the “inhibition zone (IZ)” value [16] was “inactive”, the zone of inhibition at 40 µM [17] was 15 mm and the zone of inhibition at 20 µM [18] was 12 mm. For the same molecule, the zone of inhibition at 80 µM [19] was 18 mm, the “inhibition zone (IZ)” value [20] was “inactive” and the IC50 [21] was 50 uM/ml. For the same molecule, the “inhibition zone (IZ)” value [22] was “inactive”, the zone of inhibition at 20 µM [23] was 9 mm and the IC50 [24] was 100 uM/ml. The zone of inhibition at 160 µM [25] was 11 mm, the zone of inhibition [26] was 19 mm and the zone of inhibition at 40 µM [27] was 14 mm. For the same molecule, the “inhibition zone (IZ)” value [28] was “inactive”, the zone of inhibition at 160 µM [29] was 10 mm and the zone of inhibition at 160 µM [30] was 21 mm. For the same molecule, the zone of inhibition at 160 µM [31] was 11 mm, the “inhibition zone (IZ)” value [32] was “inactive” and the zone of inhibition at 160 µM [33] was 19 mm.
